Data reported in US8168651B2, “Protein kinase modulators” (Cylene Pharmaceuticals, Inc., priority 2008, dated 2012).

Key:
Test in all cases: Standardized radiometric kinase assays, percentage of activity at 0.5 μM;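 note: Read-out is ³³P-labelled substrate protein phosphorylated by each kinase, captured on filters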
[1] = molecular target: each individual kinase of the panel (Homo sapiens, UniProt P08069); settings: for % Activity: IGF-1R(h)
[2] = molecular target: each individual kinase of the panel (Homo sapiens, UniProt P16234); settings: for % Activity: PDGFRα(h)
Sequence of each individual kinase of the panel (Homo sapiens, UniProt P16234) (P16234 24-1089 limits assumed): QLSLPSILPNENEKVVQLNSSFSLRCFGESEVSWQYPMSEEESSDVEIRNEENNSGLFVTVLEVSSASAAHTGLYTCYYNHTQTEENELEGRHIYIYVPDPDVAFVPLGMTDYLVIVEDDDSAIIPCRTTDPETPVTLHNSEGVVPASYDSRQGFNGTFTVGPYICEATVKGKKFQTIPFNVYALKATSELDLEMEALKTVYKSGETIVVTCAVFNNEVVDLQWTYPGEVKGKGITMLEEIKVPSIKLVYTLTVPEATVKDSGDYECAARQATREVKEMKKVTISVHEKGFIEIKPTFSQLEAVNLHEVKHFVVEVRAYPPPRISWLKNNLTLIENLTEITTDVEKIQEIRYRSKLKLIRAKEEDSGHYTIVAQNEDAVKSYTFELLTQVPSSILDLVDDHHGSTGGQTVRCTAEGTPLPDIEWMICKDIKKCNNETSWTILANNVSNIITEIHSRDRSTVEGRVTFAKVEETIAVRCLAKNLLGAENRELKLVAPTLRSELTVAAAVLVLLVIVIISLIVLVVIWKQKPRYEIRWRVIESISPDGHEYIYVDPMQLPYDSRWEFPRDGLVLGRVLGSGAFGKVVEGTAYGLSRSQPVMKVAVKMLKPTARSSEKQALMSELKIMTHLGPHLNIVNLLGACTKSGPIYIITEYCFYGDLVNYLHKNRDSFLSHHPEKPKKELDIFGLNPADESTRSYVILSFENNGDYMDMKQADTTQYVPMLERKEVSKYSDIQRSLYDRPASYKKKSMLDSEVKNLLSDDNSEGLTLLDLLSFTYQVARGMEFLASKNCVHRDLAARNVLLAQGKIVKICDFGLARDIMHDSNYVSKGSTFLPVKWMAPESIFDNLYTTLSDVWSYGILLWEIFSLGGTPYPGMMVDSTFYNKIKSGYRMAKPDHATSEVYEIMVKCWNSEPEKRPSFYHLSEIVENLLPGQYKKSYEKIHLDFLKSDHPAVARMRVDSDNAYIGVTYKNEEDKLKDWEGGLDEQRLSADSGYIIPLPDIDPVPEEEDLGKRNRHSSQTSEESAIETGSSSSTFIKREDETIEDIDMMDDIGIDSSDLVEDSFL

[3] = molecular target: each individual kinase of the panel (Homo sapiens, UniProt P31749); settings: for % Activity: PKBα(h)
[4] = molecular target: each individual kinase of the panel (Homo sapiens, UniProt Q9UK32); settings: for % Activity: Rsk4(h)
[5] = molecular target: each individual kinase of the panel (Homo sapiens, UniProt O14733); settings: for % Activity: MKK7β(h)
Sequence of each individual kinase of the panel (Homo sapiens, UniProt O14733) (O14733 2-419 limits assumed): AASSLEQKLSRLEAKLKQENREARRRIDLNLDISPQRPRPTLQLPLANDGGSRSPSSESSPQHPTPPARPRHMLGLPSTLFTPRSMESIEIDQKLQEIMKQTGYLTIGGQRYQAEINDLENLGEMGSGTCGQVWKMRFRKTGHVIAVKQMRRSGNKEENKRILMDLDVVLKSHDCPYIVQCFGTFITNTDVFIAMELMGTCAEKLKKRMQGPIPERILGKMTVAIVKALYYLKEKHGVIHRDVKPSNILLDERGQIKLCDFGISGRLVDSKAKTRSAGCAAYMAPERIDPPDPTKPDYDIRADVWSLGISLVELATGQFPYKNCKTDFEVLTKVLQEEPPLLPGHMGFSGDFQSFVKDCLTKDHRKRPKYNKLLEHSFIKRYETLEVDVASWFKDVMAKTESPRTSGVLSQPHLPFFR

[6] = molecular target: each individual kinase of the panel (Homo sapiens, UniProt P49841); settings: for % Activity: GSK3β(h)
[7] = molecular target: each individual kinase of the panel (Homo sapiens, UniProt P08581); settings: for % Activity: Met(h)
[8] = molecular target: each individual kinase of the panel (Homo sapiens, UniProt Q12866); settings: for % Activity: Mer(h)
[9] = molecular target: each individual kinase of the panel (Homo sapiens, UniProt P17948); settings: for % Activity: Flt1(h)
[10] = molecular target: each individual kinase of the panel (Homo sapiens, UniProt O15111); settings: for % Activity: IKKα(h)
[11] = molecular target: each individual kinase of the panel (Homo sapiens, UniProt Q9H2X6); settings: for % Activity: HIPK2(h)
[12] = molecular target: each individual kinase of the panel (Homo sapiens, UniProt P12931); settings: for % Activity: cSRC(h)
[13] = molecular target: each individual kinase of the panel (Homo sapiens, UniProt P07947); settings: for % Activity: Yes(h)
[14] = molecular target: each individual kinase of the panel (Homo sapiens, UniProt P35916); settings: for % Activity: Flt4(h)
Sequence of each individual kinase of the panel (Homo sapiens, UniProt P35916) (P35916 25-1363 limits assumed): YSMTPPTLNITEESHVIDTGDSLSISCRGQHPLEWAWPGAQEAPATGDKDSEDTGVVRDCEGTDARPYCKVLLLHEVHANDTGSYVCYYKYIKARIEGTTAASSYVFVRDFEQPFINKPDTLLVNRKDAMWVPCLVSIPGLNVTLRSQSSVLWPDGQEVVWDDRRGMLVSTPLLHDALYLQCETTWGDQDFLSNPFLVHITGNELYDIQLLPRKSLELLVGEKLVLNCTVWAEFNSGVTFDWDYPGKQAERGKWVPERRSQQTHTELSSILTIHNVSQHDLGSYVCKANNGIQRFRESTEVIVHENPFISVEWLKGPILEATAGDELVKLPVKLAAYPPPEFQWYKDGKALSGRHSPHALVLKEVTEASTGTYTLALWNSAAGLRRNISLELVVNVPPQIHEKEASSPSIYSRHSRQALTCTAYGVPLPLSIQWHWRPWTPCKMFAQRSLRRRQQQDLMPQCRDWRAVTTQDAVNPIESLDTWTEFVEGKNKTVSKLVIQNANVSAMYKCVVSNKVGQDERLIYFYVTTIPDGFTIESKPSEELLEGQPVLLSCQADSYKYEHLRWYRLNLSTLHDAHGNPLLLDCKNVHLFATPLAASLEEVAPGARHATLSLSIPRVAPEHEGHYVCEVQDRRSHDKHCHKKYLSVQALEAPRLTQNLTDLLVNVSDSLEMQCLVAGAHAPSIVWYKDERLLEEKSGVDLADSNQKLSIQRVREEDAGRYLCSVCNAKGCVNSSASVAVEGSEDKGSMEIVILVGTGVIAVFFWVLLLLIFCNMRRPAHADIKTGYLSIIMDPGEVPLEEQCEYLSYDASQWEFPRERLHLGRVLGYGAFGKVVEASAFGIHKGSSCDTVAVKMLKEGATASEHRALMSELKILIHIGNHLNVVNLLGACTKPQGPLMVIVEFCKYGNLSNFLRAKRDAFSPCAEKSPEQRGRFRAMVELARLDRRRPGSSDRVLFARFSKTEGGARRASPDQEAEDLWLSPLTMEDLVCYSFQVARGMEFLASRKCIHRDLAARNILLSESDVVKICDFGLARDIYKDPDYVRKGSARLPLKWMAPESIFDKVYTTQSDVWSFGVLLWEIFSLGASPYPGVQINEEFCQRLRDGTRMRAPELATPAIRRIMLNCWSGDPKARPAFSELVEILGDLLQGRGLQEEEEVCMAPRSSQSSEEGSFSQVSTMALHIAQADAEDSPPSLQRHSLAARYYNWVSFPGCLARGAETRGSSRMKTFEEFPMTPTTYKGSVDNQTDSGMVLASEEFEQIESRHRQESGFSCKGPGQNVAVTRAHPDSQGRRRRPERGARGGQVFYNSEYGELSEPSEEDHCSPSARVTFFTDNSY

[15] = molecular target: each individual kinase of the panel (Homo sapiens, UniProt P53350); settings: Plk1(h)
[16] = molecular target: each individual kinase of the panel (Homo sapiens, UniProt Q9Y6M4); settings: for % Activity: CK1γ3(h)
[17] = molecular target: each individual kinase of the panel (Homo sapiens, UniProt Q13177); settings: for % Activity: PAK2(h)
[18] = molecular target: each individual kinase of the panel (Homo sapiens, UniProt P04629); settings: for % Activity: TrkA(h)
Sequence of each individual kinase of the panel (Homo sapiens, UniProt P04629) (P04629 33-796 limits assumed): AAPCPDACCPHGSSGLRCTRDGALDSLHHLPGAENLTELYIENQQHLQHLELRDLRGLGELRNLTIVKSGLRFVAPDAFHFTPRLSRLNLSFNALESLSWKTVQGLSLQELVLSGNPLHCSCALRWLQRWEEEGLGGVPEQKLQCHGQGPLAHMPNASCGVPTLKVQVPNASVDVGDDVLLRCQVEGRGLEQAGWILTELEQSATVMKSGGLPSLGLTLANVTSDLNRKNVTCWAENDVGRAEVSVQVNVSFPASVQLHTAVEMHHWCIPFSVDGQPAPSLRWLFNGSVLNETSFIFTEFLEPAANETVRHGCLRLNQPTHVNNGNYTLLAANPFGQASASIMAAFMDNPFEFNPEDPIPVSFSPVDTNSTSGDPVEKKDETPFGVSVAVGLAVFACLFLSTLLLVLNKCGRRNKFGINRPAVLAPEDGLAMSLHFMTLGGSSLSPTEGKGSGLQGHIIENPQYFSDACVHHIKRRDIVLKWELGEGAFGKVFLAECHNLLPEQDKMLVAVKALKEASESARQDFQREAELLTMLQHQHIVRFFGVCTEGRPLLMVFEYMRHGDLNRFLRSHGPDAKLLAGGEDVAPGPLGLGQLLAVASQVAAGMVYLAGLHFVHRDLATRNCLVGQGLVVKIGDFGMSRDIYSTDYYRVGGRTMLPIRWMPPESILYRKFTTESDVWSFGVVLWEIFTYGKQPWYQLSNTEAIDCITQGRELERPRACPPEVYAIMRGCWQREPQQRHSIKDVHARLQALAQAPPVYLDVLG

[19] = molecular target: each individual kinase of the panel (Homo sapiens, UniProt P49137)
[20] = molecular target: each individual kinase of the panel (Homo sapiens, UniProt P07333)
Sequence of each individual kinase of the panel (Homo sapiens, UniProt P07333) (P07333 20-972 limits assumed): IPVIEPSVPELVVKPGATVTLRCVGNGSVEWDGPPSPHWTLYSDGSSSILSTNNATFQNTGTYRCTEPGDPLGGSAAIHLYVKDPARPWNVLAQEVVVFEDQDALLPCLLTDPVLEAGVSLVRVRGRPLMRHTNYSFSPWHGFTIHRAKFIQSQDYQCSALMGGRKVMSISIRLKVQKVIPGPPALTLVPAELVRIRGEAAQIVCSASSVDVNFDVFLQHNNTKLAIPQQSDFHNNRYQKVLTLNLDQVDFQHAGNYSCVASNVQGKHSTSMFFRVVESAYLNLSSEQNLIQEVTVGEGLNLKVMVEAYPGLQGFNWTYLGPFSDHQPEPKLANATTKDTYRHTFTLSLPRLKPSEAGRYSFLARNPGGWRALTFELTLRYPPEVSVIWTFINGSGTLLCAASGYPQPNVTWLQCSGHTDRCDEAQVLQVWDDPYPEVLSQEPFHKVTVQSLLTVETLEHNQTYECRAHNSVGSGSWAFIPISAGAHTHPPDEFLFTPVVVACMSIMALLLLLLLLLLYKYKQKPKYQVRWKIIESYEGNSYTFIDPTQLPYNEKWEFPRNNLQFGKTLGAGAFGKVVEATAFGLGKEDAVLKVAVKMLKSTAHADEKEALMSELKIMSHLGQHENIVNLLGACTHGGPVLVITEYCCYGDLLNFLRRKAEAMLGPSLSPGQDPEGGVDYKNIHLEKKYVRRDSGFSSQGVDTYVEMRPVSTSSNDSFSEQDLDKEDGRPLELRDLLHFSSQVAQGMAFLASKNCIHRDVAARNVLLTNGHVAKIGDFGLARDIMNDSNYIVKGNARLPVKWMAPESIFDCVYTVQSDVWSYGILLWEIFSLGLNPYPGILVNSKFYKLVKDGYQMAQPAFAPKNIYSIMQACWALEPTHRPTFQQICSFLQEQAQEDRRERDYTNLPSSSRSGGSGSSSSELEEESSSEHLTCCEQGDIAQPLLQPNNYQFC

[21] = molecular target: each individual kinase of the panel (Homo sapiens, UniProt Q00534)
[22] = molecular target: each individual kinase of the panel (Homo sapiens, UniProt Q9Y243)
[23] = molecular target: each individual kinase of the panel (Homo sapiens, UniProt Q9Y6E0)
[24] = molecular target: each individual kinase of the panel (Homo sapiens, UniProt Q13882)
[25] = molecular target: each individual kinase of the panel (Homo sapiens, UniProt P21709)
[26] = molecular target: each individual kinase of the panel (Homo sapiens, UniProt P51813)
[27] = molecular target: each individual kinase of the panel (Homo sapiens, UniProt Q8IWQ3)
[28] = molecular target: each individual kinase of the panel (Homo sapiens, UniProt P41240)
Sequence of each individual kinase of the panel (Homo sapiens, UniProt P41240) (P41240 2-450 limits assumed): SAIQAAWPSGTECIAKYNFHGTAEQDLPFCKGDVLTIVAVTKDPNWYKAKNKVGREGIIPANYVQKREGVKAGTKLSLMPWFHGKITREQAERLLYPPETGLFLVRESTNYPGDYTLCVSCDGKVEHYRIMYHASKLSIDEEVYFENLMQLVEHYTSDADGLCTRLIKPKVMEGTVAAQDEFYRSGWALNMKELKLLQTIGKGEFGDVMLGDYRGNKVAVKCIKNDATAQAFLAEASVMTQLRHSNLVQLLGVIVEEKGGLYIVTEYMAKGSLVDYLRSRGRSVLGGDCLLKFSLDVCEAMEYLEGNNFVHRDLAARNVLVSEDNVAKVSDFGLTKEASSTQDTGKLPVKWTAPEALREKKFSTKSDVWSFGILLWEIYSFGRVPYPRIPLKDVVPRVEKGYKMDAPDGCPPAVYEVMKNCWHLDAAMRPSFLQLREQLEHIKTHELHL

[29] = molecular target: each individual kinase of the panel (Mus musculus, UniProt P16277)
[30] = molecular target: each individual kinase of the panel (Homo sapiens, UniProt Q9UPE1)

% Activity [1] [%]	% Activity [2] [%]	IGF1R percentage of activity [1] [%]	PDGFRA percentage of activity [2] [%]	AKT1 percentage of activity [3] [%]	MAPKAPK2 percentage of activity [19] [%]	MAP2K7 beta percentage of activity [5] [%]	GSK3B percentage of activity [6] [%]	MET percentage of activity [7] [%]	MER percentage of activity [8] [%]	CSF1R percentage of activity [20] [%]	FLT1 percentage of activity [9] [%]	IKK alpha percentage of activity [10] [%]	YES percentage of activity [13] [%]	FLT4 percentage of activity [14] [%]	CSK percentage of activity [28] [%]	CK1 gamma 3 percentage of activity [16] [%]	PAK2 percentage of activity [17] [%]	TRKA percentage of activity [18] [%]	CDK6/cyclinD3 percentage of activity [21] [%]	Structure (SMILES)	other results
101	97																			Clc1ccccc1Nc1nc2c(-c3nnc[nH]3)cccc2c2cnccc12 [A]	% Activity [3]: 98%; % Activity [4]: 12%; % Activity [5]: 81%; % Activity [6]: 23%; % Activity [7]: 22%; % Activity [8]: 38%; % Activity [9]: 62%; % Activity [10]: 108%; % Activity [11]: −1%; % Activity [12]: 64%; % Activity [13]: 26%; % Activity [14]: 17%; % Activity [15]: 96%; % Activity [16]: 21%; % Activity [17]: 106%; % Activity [18]: 6%
90	105																			NC(=O)c1cccc2c1nc(Nc1cccc(Cl)c1)c1ccncc12 [B]	% Activity [3]: 90%; % Activity ([19]; MAPKAP-K2(h)): 104%; % Activity [4]: 41%; % Activity [5]: 75%; % Activity [6]: 25%; % Activity [7]: 96%; % Activity [8]: 39%; % Activity ([20]; Fms(h)): 42%; % Activity [9]: 66%; % Activity [10]: 99%; % Activity [11]: 2%; % Activity [12]: 74%; % Activity [13]: 44%; % Activity [14]: 41%; % Activity [15]: 76%; % Activity [16]: 38%; % Activity [17]: 108%; % Activity [18]: 23%; % Activity ([21]; CDK6/cyclinD3(h)): 63%
		27	−9	−4	−7	−33	44	−22	54	−74	5	−1	−9	101	−46	0	−12	10	−8	C#Cc1cccc(Nc2nc3cc(C(=O)O)ccc3c3cncnc23)c1 [drawing 1135]	AKT3 percentage of activity [22]: 0%; MST3 percentage of activity [23]: 0%; BRK percentage of activity [24]: −10%; RPS6KA6 percentage of activity [4]: 22%; EPHA1 percentage of activity [25]: −6%; SRC percentage of activity [12]: −2%; Src(1-530) percentage of activity [12]: −1%; BMX percentage of activity [26]: −18%; BRSK2 percentage of activity [27]: 7%; Blk(m) percentage of activity [29]: 0%; MSSK1 percentage of activity [30]: −3%
		−9	−2	7	−12	7	28	−16	86	−12	75	3	34	101	−9	32	1	56	12	C#Cc1cccc(Nc2nc3cc(C(=O)O)ccc3c3cnccc23)c1 [drawing 1137]	BRK percentage of activity [24]: 18%; RPS6KA6 percentage of activity [4]: 65%; HIPK2 percentage of activity [11]: 96%; SRC percentage of activity [12]: 22%; Src(1-530) percentage of activity [12]: 11%; BMX percentage of activity [26]: 8%; Blk(m) percentage of activity [29]: 33%
		−23	5	7	−2	12	26	−6	62	52	19	−13	30	40	14	−5	4	62	6	NC(=O)c1ccc2c(c1)nc(Nc1cccc(Cl)c1)c1ccncc12 [drawing 1138]	HIPK2 percentage of activity [11]: 89%
